As usually defined, the IC50 is the concentration needed to halve the response being measured. Read a low IC50 as greater potency.

The results in this text go back to patent US20240009195A1, “NOVEL USES” (INTRA-CELLULAR THERAPIES, INC., priority 2020, published 2024).

In one assay the target is hPDE1C (Homo sapiens, UniProt Q14123). As to the kind of experiment: IMAP PDE assay, selectivity table. Format: biochemical.
Assay [1] concerns guinea pig cardiomyocytes. Kind of assay: Glucagon co-administration with PDE1 inhibitor in guinea pig cardiomyocytes (sarcomere shortening, Ca2+ transients). It is filed as cell-based. The note with it: glucagon (1 μM) plus Compound 1 (1 μM) vs glucagon alone, 37° C., pacing at 1 Hz. On the procedure: Studies were carried out to test the effect of glucagon co-administration with a PDE1 inhibitor in guinea pig cardiomyocytes. Myocytes were isolated according to Liu et al., Circulation Research, 2014. A thoracotomy was performed on anesthetized guinea pigs to remove the heart. The aorta was cannulated on a Langendorf apparatus fitted with a heating jacket circulating water at 37° C., and were retrogradely perfused for 5 minutes at 8 ml/min. The perfusate was switched to a Tyrode's solution containing […] (Worthington) and protease type 14 (Sigma-Aldrich) for 7-9 minutes. The solution was switched to a modified Kraft-Bruhe (KB) buffer for 5 minutes, before being minced and filtered to yield single cells. Isolated cells were incubated in a modified KB buffer (Isenberg et al., Pflugers Arch, 1982] for an hour, before being placed in supplemented M199 ACCIT medium. (Ellingsen et al., American J Physiology, 1993) Cells were kept at room temperature, and used within 7 hours.
Changes in cell sarcomere shortening and Ca^2+ transients were measured using a customized IonOptix system previously described. (Hashimoto et al., Circulation, 2018). Briefly, cells were loaded using 1 μM Fura-2 for 15 minutes, and washed out for at least 20 minutes. Baseline recording was made in Tyrode's buffer described above, with 0.1% DMSO. […]

Another assay addresses hPDE1A (Homo sapiens, UniProt P54750). Kind of assay: IMAP PDE assay, selectivity table. It is filed as biochemical.

hPDE1A, sequence (P54750 whole entry): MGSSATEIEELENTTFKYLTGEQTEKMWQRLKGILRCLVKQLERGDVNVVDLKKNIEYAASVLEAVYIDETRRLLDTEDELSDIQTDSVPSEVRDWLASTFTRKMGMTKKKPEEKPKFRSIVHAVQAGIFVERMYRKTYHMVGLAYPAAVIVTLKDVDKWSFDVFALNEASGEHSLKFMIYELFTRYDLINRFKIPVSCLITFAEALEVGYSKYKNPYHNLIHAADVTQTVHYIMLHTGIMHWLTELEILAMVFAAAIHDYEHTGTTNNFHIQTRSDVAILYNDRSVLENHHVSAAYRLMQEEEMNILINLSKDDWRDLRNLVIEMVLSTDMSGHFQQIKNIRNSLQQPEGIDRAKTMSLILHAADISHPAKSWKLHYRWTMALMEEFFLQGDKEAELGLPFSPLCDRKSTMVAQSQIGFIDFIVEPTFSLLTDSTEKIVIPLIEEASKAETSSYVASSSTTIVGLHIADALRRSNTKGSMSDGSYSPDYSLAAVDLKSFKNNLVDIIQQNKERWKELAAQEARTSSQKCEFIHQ
hPDE1C, sequence (Q14123 whole entry, the tested form may be a part): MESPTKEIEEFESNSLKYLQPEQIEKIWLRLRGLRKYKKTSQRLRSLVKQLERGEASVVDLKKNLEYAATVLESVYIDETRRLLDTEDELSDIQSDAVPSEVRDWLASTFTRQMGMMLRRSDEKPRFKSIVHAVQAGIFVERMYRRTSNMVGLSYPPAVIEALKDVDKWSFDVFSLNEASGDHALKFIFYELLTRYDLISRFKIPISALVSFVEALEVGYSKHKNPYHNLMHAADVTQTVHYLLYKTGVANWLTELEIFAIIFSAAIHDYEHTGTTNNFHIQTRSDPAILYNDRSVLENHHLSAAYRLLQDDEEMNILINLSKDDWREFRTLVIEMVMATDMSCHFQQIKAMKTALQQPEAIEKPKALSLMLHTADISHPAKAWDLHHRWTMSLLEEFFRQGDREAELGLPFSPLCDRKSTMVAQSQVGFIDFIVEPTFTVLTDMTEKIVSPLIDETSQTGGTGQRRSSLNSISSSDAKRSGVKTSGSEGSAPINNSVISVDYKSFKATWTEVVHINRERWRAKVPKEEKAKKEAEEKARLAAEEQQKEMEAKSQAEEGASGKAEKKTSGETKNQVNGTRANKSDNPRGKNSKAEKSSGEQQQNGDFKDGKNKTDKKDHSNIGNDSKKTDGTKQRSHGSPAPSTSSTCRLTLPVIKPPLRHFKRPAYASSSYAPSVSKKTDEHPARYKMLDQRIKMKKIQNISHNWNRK
Excerpt for hPDE1A: (§1) The generation of GMP-fluorescein from cGMP-fluorescein can be quantitated, using, for example, the IMAP (Molecular Devices, Sunnyvale, CA) immobilized-metal affinity particle reagent.
(§2) Briefly, the IMAP reagent binds with high affinity to the free 5′-phosphate that is found in GMP-fluorescein and not in cGMP-fluorescein. The resulting GMP-fluorescein-IMAP complex is large relative to cGMP-fluorescein. Small fluorophores that are bound up in a large, slowly tumbling, complex can be distinguished from unbound fluorophores, because the photons emitted as they fluoresce retain the same polarity as the photons used to excite the fluorescence.
(§3) In the phosphodiesterase assay, cGMP-fluorescein, which cannot be bound to IMAP, and therefore retains little fluorescence polarization, is converted to GMP-fluorescein, which, when bound to IMAP, yields a large increase in fluorescence polarization (Amp). Inhibition of phosphodiesterase, therefore, is detected as a decrease in Amp. […]
(§4) The reaction is incubated in dark at room temperature for 15 min. […] The plate is incubated at room temperature for 1 hour to allow IMAP binding to proceed to completion, and then placed in an Envision multimode microplate reader (PerkinElmer, Shelton, CT) to measure the fluorescence polarization (Amp).
(§5) A decrease in GMP concentration, measured as decreased Amp, is indicative of inhibition of PDE activity.
Excerpt for hPDE1C: as §1, §2, §3, §4, §5

Regarding `CN1C(=O)c2c(nn(Cc3ccc(-c4cccc(F)n4)cc3)c2Nc2ccccc2)N2C1=N[C@@H]1CCC[C@@H]12` [Compound 1], the values for the IC50 against hPDE1C and against hPDE1A were 0.037 nM and 0.027 nM, respectively. The “change in cell sarcomere shortening” value in assay [1] (FIG. 1) is recorded as “increased the beneficial effects of glucagon”. The “peak Ca2+ transient amplitude” value in assay [1] (FIG. 2) was “increased the beneficial effects of glucagon”.
